Here are results for five compounds from PMC7385124, “The molecular basis of thioalcohol production in human body odour” (Scientific Reports, 2020).

The target of assay [1] is T1, SaPatB (Streptococcus anginosus, UniProt A6BMJ3).
T1 construct: gene lcd; full length; expressed in E. coli MC1061
T1 sequence (A6BMJ3 1-388): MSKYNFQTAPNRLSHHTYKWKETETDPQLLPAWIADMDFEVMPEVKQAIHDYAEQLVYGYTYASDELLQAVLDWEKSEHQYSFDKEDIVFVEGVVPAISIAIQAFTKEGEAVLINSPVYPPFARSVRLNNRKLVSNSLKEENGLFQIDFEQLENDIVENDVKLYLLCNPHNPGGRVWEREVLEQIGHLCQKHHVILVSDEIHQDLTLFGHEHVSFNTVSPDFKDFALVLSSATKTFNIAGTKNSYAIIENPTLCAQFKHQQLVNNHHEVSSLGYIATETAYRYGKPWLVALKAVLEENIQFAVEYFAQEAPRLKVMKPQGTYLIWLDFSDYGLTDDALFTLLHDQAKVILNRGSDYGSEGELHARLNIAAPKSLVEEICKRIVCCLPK
Kind of assay: DTNB thiol release, A412, Michaelis-Menten. The assay is classed as biochemical. The following applies: pH 7.8, 50 mM KPi, 200 mM NaCl, 37 °C, 0.4 mM DTNB.

Assay [2] concerns the target T2, BsPatB (Bacillus subtilis, UniProt Q08432).
T2 construct: gene patB; full length; N-terminal MGGGFA and C-terminal ENLYFQG-His10; expressed in E. coli MC1061; homodimer, PLP on Lys234
As to the kind of experiment: DTNB thiol release, A412, Michaelis-Menten. The assay is classed as biochemical. The following applies: pH 7.8, 50 mM KPi, 200 mM NaCl, 37 °C, 0.4 mM DTNB.

The target of assay [3] is T3, EcMalY (Escherichia coli, UniProt P23256).
T3 construct: gene malY; full length; N-terminal MGGGFA and C-terminal ENLYFQG-His10; expressed in E. coli MC1061
T3 sequence (P23256 whole entry): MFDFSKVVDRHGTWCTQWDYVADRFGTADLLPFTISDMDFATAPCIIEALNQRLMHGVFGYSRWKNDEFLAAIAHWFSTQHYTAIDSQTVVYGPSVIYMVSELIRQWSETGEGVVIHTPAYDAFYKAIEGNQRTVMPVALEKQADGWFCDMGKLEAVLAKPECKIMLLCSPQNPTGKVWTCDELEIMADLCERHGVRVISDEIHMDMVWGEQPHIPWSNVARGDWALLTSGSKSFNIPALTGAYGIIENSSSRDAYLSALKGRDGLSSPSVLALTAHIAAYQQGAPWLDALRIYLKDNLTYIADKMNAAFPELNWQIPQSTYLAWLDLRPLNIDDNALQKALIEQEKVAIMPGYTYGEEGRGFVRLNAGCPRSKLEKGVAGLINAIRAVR
As to the kind of experiment: DTNB thiol release, A412, Michaelis-Menten. The assay is classed as biochemical. The following applies: pH 7.8, 50 mM KPi, 200 mM NaCl, 37 °C, 0.4 mM DTNB.

The target in assay [4] is T4, ShPatB (Staphylococcus hominis, UniProt Z9H0M2I6C5).
T4 construct: full length; pBADcLIC, expressed in E. coli MC1061; homodimer, PLP on Lys246
T4 sequence (Z9H0M2I6C5 7-404): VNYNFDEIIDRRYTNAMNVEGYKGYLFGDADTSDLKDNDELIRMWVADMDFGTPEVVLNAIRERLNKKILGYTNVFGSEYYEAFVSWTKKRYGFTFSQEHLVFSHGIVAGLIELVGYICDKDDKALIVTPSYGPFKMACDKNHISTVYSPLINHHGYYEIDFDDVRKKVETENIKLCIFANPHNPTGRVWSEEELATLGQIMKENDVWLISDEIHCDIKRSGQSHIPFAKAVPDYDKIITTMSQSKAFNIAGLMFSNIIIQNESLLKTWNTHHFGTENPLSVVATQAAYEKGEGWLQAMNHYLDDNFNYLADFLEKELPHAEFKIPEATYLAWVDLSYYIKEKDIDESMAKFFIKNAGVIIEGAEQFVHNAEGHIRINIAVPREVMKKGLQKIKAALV
Kind of assay: DTNB thiol release, A412, Michaelis-Menten. It counts as biochemical. The following applies: pH 7.8, 50 mM KPi, 200 mM NaCl, 37 °C, 0.4 mM DTNB.

The target of assay [5] is T5, SeMetC (Staphylococcus epidermidis, UniProt Q5HRU7).
T5 construct: gene SERP0095; full length; expressed in E. coli MC1061; species of 'Se' not spelt out
T5 sequence (Q5HRU7 1-381): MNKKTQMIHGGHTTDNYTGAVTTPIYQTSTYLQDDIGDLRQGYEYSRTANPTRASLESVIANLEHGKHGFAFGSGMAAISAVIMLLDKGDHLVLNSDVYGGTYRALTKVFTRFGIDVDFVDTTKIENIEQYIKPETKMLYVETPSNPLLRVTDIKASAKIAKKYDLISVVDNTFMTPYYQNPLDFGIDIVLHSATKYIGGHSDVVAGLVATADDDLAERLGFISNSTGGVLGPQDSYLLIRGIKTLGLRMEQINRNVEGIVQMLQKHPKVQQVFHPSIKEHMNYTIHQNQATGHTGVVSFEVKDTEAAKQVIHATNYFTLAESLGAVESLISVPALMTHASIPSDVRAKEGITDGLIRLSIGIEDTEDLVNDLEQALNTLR
Kind of assay: DTNB thiol release, A412, Michaelis-Menten. The assay is classed as biochemical. The following applies: pH 7.8, 50 mM KPi, 200 mM NaCl, 37 °C, 0.4 mM DTNB.

The target in assay [6] is T6, CjAecD (Corynebacterium jeikeium, UniProt Q4JWQ6).
T6 construct: gene aecD; full length; expressed in E. coli MC1061
T6 sequence (Q4JWQ6 1-416): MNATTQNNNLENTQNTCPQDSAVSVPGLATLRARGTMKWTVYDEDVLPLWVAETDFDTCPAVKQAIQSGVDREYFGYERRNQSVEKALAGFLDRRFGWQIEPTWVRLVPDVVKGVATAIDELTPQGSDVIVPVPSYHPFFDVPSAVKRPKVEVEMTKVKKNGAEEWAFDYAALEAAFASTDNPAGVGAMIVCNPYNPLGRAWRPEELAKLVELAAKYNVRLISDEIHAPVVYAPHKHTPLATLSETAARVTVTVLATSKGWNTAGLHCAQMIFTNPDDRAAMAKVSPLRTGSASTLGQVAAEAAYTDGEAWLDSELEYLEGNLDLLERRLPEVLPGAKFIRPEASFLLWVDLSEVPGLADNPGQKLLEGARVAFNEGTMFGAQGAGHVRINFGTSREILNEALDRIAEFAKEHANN
Kind of assay: DTNB thiol release, A412, Michaelis-Menten. It counts as biochemical. The following applies: pH 7.8, 50 mM KPi, 200 mM NaCl, 37 °C, 0.4 mM DTNB.

The target of assay [7] is T7, ShMetC (Staphylococcus hominis, UniProt Z9HEU7RWP2).
T7 construct: full length; expressed in E. coli MC1061; species of 'Sh' not spelt out for MetC (S. haemolyticus possible)
As to the kind of experiment: DTNB thiol release, A412, Michaelis-Menten. It counts as biochemical. The following applies: pH 7.8, 50 mM KPi, 200 mM NaCl, 37 °C, 0.4 mM DTNB.

Assay [8] addresses T2, BsPatB. As to the kind of experiment: X-ray crystallography, […] Å. It counts as binding. The following applies: covalent internal aldimine at Lys234.
The target in assay [9] is T4, ShPatB. As to the kind of experiment: X-ray crystallography, […] Å. It counts as binding. The following applies: covalent internal aldimine at Lys246.
In assay [10] the target is T4, ShPatB. As to the kind of experiment: end point DTNB assay, A412. It counts as biochemical. The following applies: 2.5 μM enzyme, 2.5 mM Cys-3M3SH; covalent to PLP, reversed by excess PLP.

T2 sequence (Q08432 whole entry): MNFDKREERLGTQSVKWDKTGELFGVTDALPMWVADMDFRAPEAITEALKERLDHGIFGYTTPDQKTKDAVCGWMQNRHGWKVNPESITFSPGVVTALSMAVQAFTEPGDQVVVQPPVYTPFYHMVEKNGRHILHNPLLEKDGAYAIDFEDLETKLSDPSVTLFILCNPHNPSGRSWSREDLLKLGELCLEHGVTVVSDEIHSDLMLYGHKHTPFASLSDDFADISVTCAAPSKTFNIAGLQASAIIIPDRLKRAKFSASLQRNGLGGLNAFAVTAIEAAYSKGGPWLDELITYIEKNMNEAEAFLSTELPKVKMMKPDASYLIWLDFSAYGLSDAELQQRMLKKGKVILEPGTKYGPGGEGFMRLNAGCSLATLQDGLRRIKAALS

As to `CCCC(C)(CCO)SC[C@H](N)C(=O)O` (some centres unmarked) [Cys-3M3SH], the KM entry is “Streptococcus anginosus (SaPatB) did not discriminate between the two ligands” in [1]; “B. subtilis (BsPatB) and Streptococcus anginosus (SaPatB) did not discriminate between the two ligands” in assay [2]; “E. coli MalY (EcMalY) had higher activities against cystathionine” in assay [3]; “ShPatB exhibits selectivity towards Cys-3M3SH” in assay [4].
`CC(C)(CCO)SC[C@H](N)C(=O)O` [Felinine]: the KM entry in assay [4] is “We also measured enzyme activity against Felinine, a close structural analog of Cys-3M3SH”.
For `N[C@@H](CCSC[C@H](N)C(=O)O)C(=O)O` [cystathionine], the KM entry in assay [1] was “Streptococcus anginosus (SaPatB) did not discriminate between the two ligands”; in [5], “higher activities against cystathionine, similar to the MetC enzymes included (ShMetC and SeMetC)”; in [2], “B. subtilis (BsPatB) and Streptococcus anginosus (SaPatB) did not discriminate between the two ligands”; in assay [6], “CjAecD is selective for cystathionine over Cys-3M3SH”; in assay [3] it was “E. coli MalY (EcMalY) had higher activities against cystathionine”; in assay [7], “higher activities against cystathionine, similar to the MetC enzymes included (ShMetC and SeMetC)”.
Turning to `Cc1ncc(COP(=O)(O)O)c(C=O)c1O` [PLP, pyridoxal phosphate], in assay [8], the “X-ray crystallography, 2.3 Å” value is listed as “each subunit containing a PLP moiety covalently bound to a conserved lysine residue”. Moreover, the “X-ray crystallography, 1.6 Å” value in assay [9] was “each subunit containing a PLP moiety covalently bound to a conserved lysine residue”.
Turning to `N[C@H]1CONC1=O` [LCS, L-cycloserine], the “inhibition (end point)” value in assay [10] was “Cycloserine in vitro inhibition of ShPatB with Cys-3M3SH as the substrate”.
